Measurements: article PMC9228955, “Synthesis, Physicochemical, Labeling and In Vivo Characterization of ^44Sc-Labeled DO3AM-NI as a Hypoxia-Sensitive PET Probe” (Pharmaceuticals, 2022)

How the values were obtained:
[1] = Octanol/water partition coefficient (logP) of labeled complexes; format: physicochemical; conditions: 1-octanol/water, triplicates
Description: (§1) Subsequently, the octanol/water partition coefficient (logP) of the labeled complexes was determined to be −3.89 for [^68Ga]Ga(DO3AM-NI) and −2.59 for [^44Sc]Sc(DO3AM-NI). […] To assess the labeled compounds’ stability, the chelates were mixed with the solution of mouse plasma, Na2H2EDTA and oxalic acid, respectively. Aliquots were then taken at different time points (0, 60, 120 and 240 min) and injected into the radio-HPLC column, and the chromatograms were analyzed. After 240 min, the RCP of the samples was above 93% in all three cases.
A 10 µL volume of [^68Ga]Ga(DO3AM-NI) and [^44Sc]Sc(DO3AM-NI) solution (~5 MBq) was mixed with 500 µL of 1-octanol and 490 µL of water in an Eppendorf vial, respectively. The mixture was shaken with a vortex shaker (600 rpm) for 10 min and centrifuged (6000 rpm) for 5 min. Then, 100 µL from the octanol phase and 1 μL from the aqueous phase were pipetted into vials, and the aqueous aliquot was diluted to 100 µL with water in order to minimize the effects of sample geometry and the high difference of activity concentrations in the two solvents. The radioactivity of the fractions was determined with a gamma counter. The measurements were performed in triplicates for both labeled compounds.

[2] = Stability of labeled complexes in mouse plasma, Na2H2EDTA and oxalic acid by radio-HPLC; format: in vitro ADME
Description: as §1
A 10 µL volume of [^68Ga]Ga(DO3AM-NI) and [^44Sc]Sc(DO3AM-NI) solution was added to the solution of 90 µL of mouse plasma, Na2H2EDTA (0.01 M) and oxalic acid (0.01 M), respectively. Samples were analyzed by radio-HPLC at the beginning and after 60, 120 and 240 min. The analytical conditions were the same as detailed for the quality control of the labeled compound.

[3] = Ex vivo biodistribution in healthy control SCID mice; design: species or system CB17 SCID mice; conditions: mean ± SD
Description: Ex vivo biodistribution studies were carried out 90 min and 240 min after intravenous injection of ^44Sc- or ^68Ga-labeled DO3AM-NI, and the accumulated activities of the organs and tissues were determined using a gamma counter. By the quantitative analysis of the ex vivo data, significant differences were found between the %ID/g values when ^44Sc- and ^68Ga-labeled DO3AM-NI accumulations were compared. […] In contrast, e.g., [^18F]fluorine- [28], [^131I]iodine- [29], [^99mTc]technetium- [30] and [^64Cu]copper-labeled nitroimidazole-based probes, due to their chemical properties, were mainly metabolized via the liver, and the large abdominal accumulation impaired the evaluation of abdominal tumors in the PET images. The ^44Sc- and ^68Ga-labeled nitroimidazole derivatives had more favorable properties in terms of the reporting and evaluation of PET images and due to their rapid elimination through the urinary system.
(§2) For the determination of ex vivo biodistribution of the radiotracers, control and KB tumor-bearing mice were injected intravenously with 8.42 ± 0.38 MBq of ^68Ga- or ^44Sc-labeled DO3AM-NI via the tail vein. Mice were euthanized with 5% isoflurane 90 min or 4 h after intravenous radiotracer injection. Three tissue samples were taken from the selected organs, and their weight and radioactivity were measured with a calibrated gamma counter (Perkin-Elmer Packard Cobra, Waltham, MA, USA). The radiotracer uptake was expressed as %ID/g tissue.

KB tumors [4] = experiment: In vivo PET/MRI imaging of KB tumor-bearing mice, quantitative SUV analysis; design: species or system CB17 SCID mice; conditions: 240 min after injection
Description: The tumor-specific accumulation of [^44Sc]Sc(DO3AM-NI) and [^68Ga]Ga(DO3AM-NI) was investigated by PET/MRI imaging 90 and 240 min after radiotracer injection using KB tumor-bearing mice. The subcutaneously growing KB tumors were clearly visualized using [^44Sc]Sc(DO3AM-NI) 90 and 240 min post injection with relatively higher SUVmean and SUVmax values (SUVmean: 1.46 ± 0.32 and SUVmax: 2.35 ± 0.47 at 90 min and SUVmean: 0.67 ± 0.03 and SUVmax: 1.55 ± 0.28 at 240 min). Lower accumulation was found in the same KB tumors by using the ^68Ga-labeled molecule (SUVmean: 0.79 ± 0.10, SUVmax: 1.94 ± 0.40 at 90 min and SUVmean: 0.51 ± 0.09 and SUVmax: 1.23 ± 0.10 at 240 min); however, this difference between the radiotracers was not significant (Figure 4E). […] In contrast, no significant differences were found between the T/M SUV values of the two radiotracers 90 min post injection (Figure 4F).
(§3) For tumor induction, SCID mice were injected with 5x10^6 KB tumor cells in 0.9% NaCl (100 µL) subcutaneously into the left shoulder area. The tumor growth was assessed by caliper measurements, and tumor size was calculated using the following formula: (largest diameter × smallest diameter^2)/2. In vivo experiments were carried out approximately 13 ± 1 days after […] injection of tumor cells at the tumor volume of approximately 110 mm^3.
For in vivo imaging studies, healthy control and KB tumor-bearing CB17 SCID mice were injected with 8.42 ± 0.38 MBq of ^68Ga- or ^44Sc-labeled DO3AM-NI via the lateral tail vein 13 ± 1 days after the inoculation of KB tumor cells. Then, 65 and 225 min after radiotracer injection, mice were anaesthetized by 3% isoflurane (Forane) with a dedicated small animal anesthesia device and whole-body T1-weighted MRI scans were performed (3D GRE EXT multi-FOV; TR/TE 15/2 ms; phase: 100; FOV 60 mm; NEX 2) using the preclinical nanoScan PET/MRI system with 1 Tesla magnetic field (Mediso Ltd., Hungary). After MRI imaging, 20 min static whole-body PET scans were acquired (90 min and 4 h after radiotracer injection).
Quantitative radiotracer uptake was expressed in terms of standardized uptake value (SUV), SUV = [VOI activity (Bq/mL)]/[injected activity (Bq)/animal weight (g)], assuming a density of 1 g/mL. Volumes of interest (VOI) were manually drawn around the edge of the organ or tumor activity using the InterView™ FUSION (Mediso Ltd., Hungary) image analysis software. Tumor-to-muscle (T/M) ratios were computed as the ratio between the activity in the tumor VOI and in the background (muscle) VOI. Skeletal muscles of the right shoulder area were used as background.

KB tumors [5] = experiment: Ex vivo biodistribution in KB tumor xenografts; design: species or system CB17 SCID mice; conditions: for KB tumor uptake: 13 ± 1 days after subcutaneous tumor induction, n = 5, mean ± SD
Description: For the assessment of the accumulation in the tumors of [^44Sc]Sc(DO3AM-NI) and [^68Ga]Ga(DO3AM-NI), ex vivo biodistribution studies were performed 90 and 240 min post injection using KB tumor xenografts.
as §3, §2

## O=C([O-])CN1CCN(CC(=O)[O-])CCN(CC(=O)NCCn2ccnc2[N+](=O)[O-])CCN(CC(=O)[O-])CC1.[44Sc+3] [[^44Sc]Sc(DO3AM-NI)]
[1]
  octanol/water partition coefficient (logP): −2.59
[2]; Na2H2EDTA (0.01 M)
  RCP after 240 min: above 93%
[2]; mouse plasma
  RCP after 240 min: above 93%
[2]; oxalic acid (0.01 M)
  RCP after 240 min: above 93%
[3]; 90 min after i.v. injection
  Blood uptake: 0.08 ± 0.01 %ID/g
  Fat uptake: 0.01 ± 0.001 %ID/g
  Heart uptake: 0.04 ± 0.01 %ID/g
  Kidney uptake: 1.17 ± 0.41 %ID/g
  Large intestine uptake: 0.05 ± 0.01 %ID/g
  Liver uptake: 0.14 ± 0.09 %ID/g
  Lung uptake: 0.10 ± 0.04 %ID/g
  Muscle uptake: 0.01 ± 0.01 %ID/g
  Small intestine uptake: 0.10 ± 0.05 %ID/g
  Spleen uptake: 0.07 ± 0.02 %ID/g
  Stomach uptake: 0.09 ± 0.03 %ID/g
  Urine uptake: 57.78 ± 12.41 %ID/g
[3]; 240 min after i.v. injection
  Blood uptake: 0.03 ± 0.01 %ID/g
  Fat uptake: 0.01 ± 0.01 %ID/g
  Heart uptake: 0.03 ± 0.01 %ID/g
  Kidney uptake: 0.89 ± 0.23 %ID/g
  Large intestine uptake: 0.04 ± 0.004 %ID/g
  Liver uptake: 0.20 ± 0.04 %ID/g
  Lung uptake: 0.04 ± 0.003 %ID/g
  Muscle uptake: 0.007 ± 0.002 %ID/g
  Small intestine uptake: 0.03 ± 0.01 %ID/g
  Spleen uptake: 0.06 ± 0.01 %ID/g
  Stomach uptake: 0.03 ± 0.005 %ID/g
  Urine uptake: 6.23 ± 1.25 %ID/g
KB tumors [4]
  tumor-to-muscle ratio T/M SUVmax: 129.68 ± 26.11
  tumor-to-muscle ratio T/M SUVmean: 182.67 ± 23.50
KB tumors [5]; 90 min after injection
  T/M (tumor-to-muscle ratio): 79.30 ± 5.26
  KB tumor uptake: 0.82 ± 0.11 %ID/g
KB tumors [5]; 240 min after injection
  T/M (tumor-to-muscle ratio): 99.35 ± 5.14
  KB tumor uptake: 0.70 ± 0.14 %ID/g
KB tumors [5]; at each time point (90 and 240 min)
  T/M ratio relative to the T/M ratio of [^68Ga]Ga(DO3AM-NI): 10–15 fold
